“Also recorded” adds a separate entry of the source. Ends that are not written are not given here. C(Compound (Ia)-maleimide) = not defined here

One series addresses T1, empty DR2 molecules (Homo sapiens, UniProt P01903+P01911).
T1 construct: we generated DR/CLIP complexes as soluble molecules in CHO cells; CLIP peptide (of invariant chain, CD74) joined through a linker with a thrombin cleavage site (N, cleaved yes); made in house
Description: Association of Alexa-488 MBP peptide to empty DR2 molecules after photo-cleavage of bound peptide (FP). The format is biochemical. Conditions: photo-cleaved bound peptide, with versus without compound. The source says:
DM acts as a catalyst that accelerates peptide binding reactions and increases both the rate of peptide dissociation and association. […] Rigorous testing of this hypothesis required generation of empty DR molecules, a task that is challenging because DR molecules aggregate over time in the absence of peptide. Applicants therefore synthesized a peptide with a photo-cleavable residue (a derivative of phenylalanine), so that the binding site could be rapidly vacated by peptide cleavage. This approach has been reported for the creation of empty MHC class I molecules (Toebes et al., 2006, Nat. Med., 12:246-251). The photoreactive group [3-amino-3-(2-nitro) phenyl-propionic acid; […]] was placed at the P4 position of the peptide, close to the center of DR2 bound peptide. The peptide also carried an N-terminal DNP group for affinity isolation of the complex generated with this peptide. […] Applicants then loaded this peptide onto DR2 molecules, isolated the complex by DNP affinity chromatography, irradiated the samples at 360 nm at 4° C., added Alexa™-488 labeled MBP and tracked its association to DR2 by FP in the presence and absence of Compound (Ia). Applicants observed a striking Compound (Ia)-induced acceleration of Alexa™-488 MBP association to DR2 when the bound peptide was photo-cleaved compared to reactions with photo-cleavage but no Compound (Ia) as diagrammed in FIG. 5. […]

The test system of the next series is MGAR cells. In words: Cellular assay: MBP peptide loading on MGAR cells, FACS labeling with MK16 mAb. The class given is cell-based, human. Conditions: for activity relative to Compound (Ia) in loading of MBP peptide to DR2: MGAR cells, MBP peptide 1 μM, FIG. 13B, 14B. The protocol:
The cells were then labeled with biotinylated MK16 Fab and streptavidin-APC and analyzed by FACS. Cells not pulsed with peptide (green line) were used as a negative control to define background labeling of MK16.
(§1) MGAR cells were incubated with MBP peptide (1 μM) in the presence of different compounds and the amount of DR2 bound peptide was determined by FACS labeling with the MK16 mAb.
as §1, §1

For series [1] the following is noted: mouse, in vivo. The source says: An important aspect of the medicinal chemistry effort is a thorough analysis of potential in vivo toxicity.
For the next series, the system named is dendritic cells. In words: Peptide presentation by dendritic cells in vivo (MK16 labeling of draining lymph node cells). The settings on record: co-administered at 50-200 μM s.c. with MBP peptide. The source says:
Applicants next established the higher levels of peptide presentation in the presence of Compound (Ia) in human antigen presenting cells (APCs). The goal of these experiments is to examine whether Compound (Ia) covalently linked to the MBP peptide (abbreviated as Compound (Ia)*MBP peptide) and Compound (Ia) co-administered with peptide (Compound (Ia)+MBP peptide) enhance binding to MHC-II in vivo compared to unmodified peptide. The MK16 mAb (Krogsgaard et al., 2000, J. Exp. Med., 191:1395-1412) is used to directly quantify DR2/MBP peptide complexes on the surface of dendritic cells in lymph nodes draining the s.c. injection site. Lymph nodes are dissected 24 hours following injection of peptides in PBS and cell suspensions are labeled with CD11c (dendritic cells), MK16 (DR2/MBP), and Annexin-V (exclusion of apoptotic cells) for FACS analysis. The efficacy of Compound (Ia)*MBP peptide and unmodified MBP peptide are compared at concentrations ranging from 1 to 100 μM administered s.c. in the flank in 0.2 ml of PBS. In the co-administration mode, Compound (Ia) is added to the inoculum at concentrations of 50-200 μM.

Another series concerns CD4 T cell response. In words: Immunization of HLA-DR4 transgenic mice with viral and tumor peptides, CD4 T cell response. Conditions: co-administered with or covalently linked to peptide. The format is in vivo. The text has this: HLA-DR4 transgenic mice (DRA, DRB1*0401) are used to examine whether Compound (Ib), Compound (Ia) and the other compounds enhance the CD4 T cell response following immunization with viral and tumor peptides. Mice are immunized with peptides from two human pathogens (HIV and HCV) as well as peptides from two human tumor antigens (annexin V and gp100, identified in human melanomas). Applicants have previously performed binding studies with these peptides and shown that they bind with high affinity to DR4. The T cell response is analyzed in two different assays. First, the frequency of peptide-specific T cells is analyzed in draining lymph nodes with DR4/peptide tetramers. This approach provides a quantitative readout of the induced T cell response. Second, the cytokine production profile of these T cells is determined following a 48 hour in vitro re-stimulation with the relevant peptide. The cytometric bead array technique is utilized for comprehensive definition of the cytokine repertoire. Either Compound (Ia) is co-administered with the peptide of interest in the adjuvant or peptides are utilized with a covalently linked Compound (Ia) group (or other groups, depending on which one is being tested). […] These experiments are expected to establish the in vivo efficacy of Compound (Ia) and to establish appropriate dosing and administration procedures with rapid, quantitative readouts. […]

Series [2] addresses T2, DR2 (Homo sapiens, UniProt P01903+P01911). In words: Real-time fluorescence polarization peptide binding assay (DR2/CLIP plus Alexa-488 labeled MBP peptide).
Series [3] concerns the target T2, DR2. In words: Dissociation of pre-bound Alexa-488 labeled MBP peptide from DR2 followed by fluorescence polarization. The class given is biochemical. Set-up: we generated DR/CLIP complexes as soluble molecules in CHO cells; CLIP peptide (of invariant chain, CD74) joined through a linker with a thrombin cleavage site (N, cleaved yes); made in house. The settings on record: for displacement (dissociation) of labeled MBP peptide from DR2 by competitor: competitor 50 μM, 150 nM DR2/50 nM Alexa-488 MBP. How it is done: We also examined whether Compound (Ia) could induce the release of a previously bound high affinity peptide from DR2 as shown in FIG. 4B. This issue is important for potential applications of this small molecule because most DR molecules are occupied by intermediate to high affinity peptides. Applicants therefore loaded the DR2 molecule with the high affinity Alexa™-488 MBP peptide during an overnight incubation and then examined if Compound (Ia) could induce dissociation of this labeled peptide. A molar excess of an unlabeled MBP peptide was added to inhibit rebinding of the labeled peptide to DR2. […] Compound (Ia) thus substantially accelerates peptide binding by creating empty DR molecules.
We then tested the concept of “self-catalyzed peptide loading” by synthesizing the MBP peptide with an N-terminal or C-terminal cysteine to which the Compound (Ia)-maleimide was linked. These peptide-Compound (Ia) compounds were purified by reverse-phase HPLC and their identity verified by mass spectrometry. Applicants then examined whether the linked Compound (Ia) group could displace a high affinity peptide from the DR2 binding site. For that purpose, we loaded DR2 (1.5 μM) with the Alexa™-488 labeled MBP peptide (500 nM) at 37° C. for 5 hours. The complex was then diluted to 150 nM DR2/50 nM Alexa™-488 and added to a 384-well plate in a volume of 40 μl.
(In fluorescence polarisation assays a small probe gives low polarisation when free and higher when bound to something large.)

A further series concerns the target T3, DR2/CLIP (Homo sapiens, UniProt P01903+P01911).
T3 construct: we generated DR/CLIP complexes as soluble molecules in CHO cells; CLIP peptide (of invariant chain, CD74) joined through a linker with a thrombin cleavage site (N, cleaved yes); made in house
In words: Competition for binding of labeled MBP peptide to DR2/CLIP in the FP assay. The settings on record: 10 nM MBP-488, 100 nM DR2/CLIP, wide dose range. The protocol: Competitor peptides were tested over a wide dose range against 10 nM MBP-488 and 100 nM DR2/CLIP in the FP assay.
Compound (Ia)-glatiramer acetate compounds are characterized for their ability to compete for binding of the Alexe™-488 labeled MBP peptide to DR2 in the FP assay, as well as for their ability to inhibit presentation of the MBP peptide to human MBP specific T cell clones, as described in detail above.

The subject of series [4] is DR2/MBP specific T cell hybridoma. In words: T cell assay: IL-2 release by DR2/MBP specific T cell hybridoma, MBP (85-99) presented by MGAR cells. The class given is cell-based. Conditions: MGAR cells as APC. How it is done:
Peptide presentation of MBP (85-99) to T cell hybridomas by MGAR cells was measured by IL-2 release.

The conditions of series [5]: DR2/TCR transgenic mice and other EAE models, from a mean score of ~4; cited from earlier work.
For series [6] the following is noted: 20 mg daily subcutaneously over two years; cited from earlier work.

For the molecule `O=C(Cc1c(C(=O)O)[nH]c2ccc(Cl)cc12)Nc1ccc(F)c(Cl)c1` [Compound (Ia)], at empty DR2 molecules, the “peptide association to empty DR2 molecules” value is given as “substantially accelerated peptide association to empty DR2 molecules”. For the same molecule, the “lowering of the dose of peptide required for equivalent staining / presentation” value in the series with MGAR cells (1 μM MBP peptide plus compound versus 10 μM peptide alone) is “approximately 10 fold”. Moreover, the “presentation of MBP on MGAR cells (MK16 staining)” value with MGAR cells (100 μM compound, 1.7 μM MBP peptide, 30 minutes at 37° C.) is given as “significantly increased”. Further, the “acute toxicity, observation of mice” value in series [1] was “no sips of distress”. Moreover, the “loading of peptides on dendritic cells in vivo” value with dendritic cells was “increases loading of peptides in a dose-dependent manner”. For the same molecule, in the series on CD4 T cell response, the “CD4 T cell response following immunization” value was “substantial enhancement”. The “fold increase of the initial rate of peptide association” value is reported as 22 fold at DR2 [2] (neutral pH) and “more than 58 fold” on DR2 [2] (pH range from pH 4.5 to 5.75). Also, on DR2 [2] (pH 5.2, absence of DM, compound at 109 μM (160 minutes without compound)), the “time to reach half-maximal peptide association” value was found to be 7 min. Also, the “rate of peptide binding reaction compared to DM” value at DR2 [2] (pH 5.2, higher compound concentrations) was “faster than in the presence of DM”. The “pH of maximum activity” value at DR2 [2] (pH range 3.75-7.0) was 5.25. Also, at DR2 [3] (excess unlabeled MBP peptide, versus DMSO control), the “dissociation of previously bound high affinity labeled MBP peptide from DR2” value was “marked acceleration of peptide dissociation”. In addition, the “concentration range inducing peptide dissociation” value on DR2 [3] (release of high affinity peptides from DR2) is on record as “low micro-molar range”.

On to `O=C(Cc1c(C(=O)O)[nH]c2c(F)c(F)c(F)cc12)Nc1ccc(Cl)c(Cl)c1` [Compound (Ib)], for which the “activity relative to Compound (Ia) in loading of MBP peptide to DR2” value (“activity relative to Compound (Ia)” for short) with MGAR cells is recorded as “substantially higher activity than Compound (Ia)”. For the same molecule, at DR2 [2] (biochemical assay), the “fold higher activity than Compound (Ia) in catalyzing loading of the MBP peptide to DR2” value is listed as 4.2 fold.

`O=C(Cc1c(C(=O)O)[nH]c2ccccc12)Nc1ccc(Cl)c(Cl)c1` [Compound (Ic)]: the “activity relative to Compound (Ia)” value in the series with MGAR cells is listed as “higher activities than Compound (Ia)”.

For the molecule `O=C(Cc1c(C(=O)O)[nH]c2c(F)c(F)c(F)cc12)Nc1ccc(F)c(Cl)c1` [Compound (Id)], the “activity relative to Compound (Ia)” value in the series on MGAR cells was “higher activities than Compound (Ia)”.

Consider “MBP peptide without linked Compound (Ia): unmodified myelin basic protein (85-99) peptide that binds with high affinity to DR2 (PGSRPHLIRLFSRDA; UniProt P02686 85-99, looked up, fragment) [reference compound]”, for which the “displacement (dissociation) of labeled MBP peptide from DR2 by competitor” value with DR2 [3] is on record as “slow dissociation”.

As to “MBP-C-Compound (Ia): MBP peptide with a C-terminal cysteine to which the Compound (Ia)-maleimide was linked (PGSRPHLIRLFSRDA-{C(Compound (Ia)-maleimide)}; reading uncertain; UniProt P02686 85-99, looked up, fragment)”, in the series with DR2/CLIP, the “competition against labeled MBP peptide for DR2/CLIP” value is “more effective competitor than unmodified MBP peptide”. In addition, in series [4], the “IL-2 production by T cell hybridoma” value is reported as “higher levels of IL-2 production”. In the series with DR2 [3] (listed as MBP peptide with C-terminally linked Compound (Ia)), the “displacement (dissociation) of labeled MBP peptide from DR2 by competitor” value is “more effective in displacing the labeled peptide; also recorded: more favorable”.

Regarding glatiramer acetate, the “mean EAE score under treatment” value in series [5] was around 2. For the same molecule, the “reduction of relapse rate” value in series [6] is given as 29%.

Source of the values: patent US20100183658A1, “Novel Compounds for Enhancing MHC Class II Therapies” (The Brigham and Women's Hospital, Inc., priority 2007, published 2010).
